Measurements as given in PMC3004914, “Classification of Drugs Based on Properties of Sodium Channel Inhibition: A Comparative Automated Patch-Clamp Study” (PLoS ONE, 2010).
Several values for one entry are separate records, joined by “and”; a condition that tells them apart may be missing. Equal values may be shown once. Read-outs that look alike come from different tables or passages of the source. Blank lines part the entries; values can stand above or below the compound they belong to.

Assays:
[1] = target: T1, rNav1.2 sodium channels (HEK-293 cells) (Rattus norvegicus, UniProt P04775); experiment: steady-state inactivation protocol (availability curves), QPatch automated patch-clamp; type: cell-based
T1 sequence (P04775 whole entry, the tested form may be a part): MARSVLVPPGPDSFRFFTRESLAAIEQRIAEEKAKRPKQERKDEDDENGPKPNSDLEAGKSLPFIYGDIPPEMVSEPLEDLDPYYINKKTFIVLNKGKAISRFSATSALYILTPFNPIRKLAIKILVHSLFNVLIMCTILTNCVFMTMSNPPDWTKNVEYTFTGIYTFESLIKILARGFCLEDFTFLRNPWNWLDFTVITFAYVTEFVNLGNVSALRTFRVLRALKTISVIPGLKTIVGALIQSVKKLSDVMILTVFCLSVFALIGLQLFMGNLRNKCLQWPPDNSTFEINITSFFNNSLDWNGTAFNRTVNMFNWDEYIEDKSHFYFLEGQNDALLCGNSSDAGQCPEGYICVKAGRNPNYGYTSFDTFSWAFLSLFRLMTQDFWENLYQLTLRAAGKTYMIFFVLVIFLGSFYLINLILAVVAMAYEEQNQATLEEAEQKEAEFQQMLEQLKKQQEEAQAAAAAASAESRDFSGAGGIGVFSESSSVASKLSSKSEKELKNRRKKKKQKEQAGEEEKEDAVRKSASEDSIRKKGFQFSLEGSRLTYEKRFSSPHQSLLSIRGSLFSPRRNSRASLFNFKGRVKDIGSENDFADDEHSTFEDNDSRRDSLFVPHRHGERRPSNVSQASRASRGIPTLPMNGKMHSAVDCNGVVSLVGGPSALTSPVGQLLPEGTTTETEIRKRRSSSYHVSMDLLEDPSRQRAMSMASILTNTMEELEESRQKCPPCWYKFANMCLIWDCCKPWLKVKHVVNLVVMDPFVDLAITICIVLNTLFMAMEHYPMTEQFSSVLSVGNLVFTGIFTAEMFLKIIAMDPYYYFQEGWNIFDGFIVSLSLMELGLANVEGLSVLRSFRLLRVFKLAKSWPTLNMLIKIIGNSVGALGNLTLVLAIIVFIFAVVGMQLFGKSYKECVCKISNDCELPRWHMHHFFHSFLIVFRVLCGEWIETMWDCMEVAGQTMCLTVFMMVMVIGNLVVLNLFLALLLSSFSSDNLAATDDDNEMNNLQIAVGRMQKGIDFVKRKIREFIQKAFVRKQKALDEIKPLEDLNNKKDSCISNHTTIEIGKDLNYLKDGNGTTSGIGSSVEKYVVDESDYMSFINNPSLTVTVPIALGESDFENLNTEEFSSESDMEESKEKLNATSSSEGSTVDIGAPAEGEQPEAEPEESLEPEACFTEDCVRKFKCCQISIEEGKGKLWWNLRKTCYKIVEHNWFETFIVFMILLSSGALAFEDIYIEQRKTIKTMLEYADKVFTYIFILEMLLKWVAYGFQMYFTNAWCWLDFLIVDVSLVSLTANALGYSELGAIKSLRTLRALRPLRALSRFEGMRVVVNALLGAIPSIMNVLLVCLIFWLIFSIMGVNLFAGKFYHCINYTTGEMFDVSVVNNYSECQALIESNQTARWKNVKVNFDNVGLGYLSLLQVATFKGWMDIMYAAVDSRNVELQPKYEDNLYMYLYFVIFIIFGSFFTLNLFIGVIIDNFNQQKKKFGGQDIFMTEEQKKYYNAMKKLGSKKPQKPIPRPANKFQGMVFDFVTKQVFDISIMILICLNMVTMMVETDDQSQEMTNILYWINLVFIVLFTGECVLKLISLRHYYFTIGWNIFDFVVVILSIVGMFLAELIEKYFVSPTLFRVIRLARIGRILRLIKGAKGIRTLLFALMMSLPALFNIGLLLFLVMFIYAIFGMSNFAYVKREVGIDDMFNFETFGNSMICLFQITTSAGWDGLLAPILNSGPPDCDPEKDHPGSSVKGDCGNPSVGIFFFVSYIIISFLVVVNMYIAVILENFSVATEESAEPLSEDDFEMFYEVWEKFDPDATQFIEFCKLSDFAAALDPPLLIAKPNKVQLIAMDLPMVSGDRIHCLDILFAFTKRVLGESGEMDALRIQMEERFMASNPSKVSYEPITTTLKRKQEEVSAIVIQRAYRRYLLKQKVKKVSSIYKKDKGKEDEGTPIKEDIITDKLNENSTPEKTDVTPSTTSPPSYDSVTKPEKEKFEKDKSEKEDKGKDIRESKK
Excerpt: (§1) A)–D) Peak amplitudes of evoked currents (5 Hz trains of 5 depolarizations from −90 to −10 mV) are plotted against time. Black dots: Control. Grey dots: Drug perfusion. […] Calculation of properties of inhibition is illustrated. […] E) Calculation of Kr and Ki values from steady-state availability curves.
Standard steady-state inactivation protocols were used to measure the shift of steady-state availability curve caused by the drugs. Currents were evoked by a 10 ms test pulse to −10 mV, preceded by 400 ms pre-pulses from −150 to −30 mV. […] Because the inhibition at hyperpolarized potentials (Inh−150), and the shift of the availability curves (ΔV1/2) are both concentration-dependent properties, we calculated affinities to hyperpolarized and depolarized states (“resting state affinity”: Kr, and “inactivated state affinity”: Ki), which, on the other hand, are concentration-independent characteristics of individual drugs. Calculation of Kr and Ki values are described in Materials and Methods, and illustrated in Figure 1E. State-dependence (SD) was quantified as the ratio Kr/Ki.
(§2) HEK-293 cells stably expressing rNav1.2 sodium channels were obtained from NeuroSearch (Ballerup, Denmark).
(§3) Cells were automatically prepared for application to the chips (centrifuged and washed twice, then resuspended in extracellular solution) as described previously. Composition of the extracellular solution was: (in mM): 140 NaCl, 3 KCl, 1 CaCl2, 1 MgCl2, 0.1 CdCl2, 20 TEA-Cl, 5 HEPES, adjusted to pH 7.3, Osmolality: ∼320 mOsm.
(§4) All electrophysiological experiments were conducted on Qpatch-16 or QPatch HT instruments using QPlate™ chips. For a detailed description of the instrument and the patch-clamp chips see [37], [38]. Data were sampled at a frequency of 25 kHz and filtered at 5 kHz. […] The amplifier was controlled and the data were collected by the Sophion QPatch client software. For initial data analysis the QPatch software was used. Built-in amplifiers provide an improved method for series resistance compensation. Leak subtraction (based on a standard P/n protocol) was used to subtract the capacitive component of currents.
Inactivated affinity (Ki) values were calculated assuming a simple four-state model of drug binding and channel gating, using two separate methods: (1) from the shift of the availability curve (ΔV1/2), the slope of the Boltzmann fit of the availability curve (k) and Kr, using the formula described by Bean, Cohen and Tsien (Ki−ΔV1/2; see Figure 1E), or (2) from the apparent affinity (Kapp) at a certain pre-pulse potential, which was calculated from the inhibition (e.g. Inh−60) as described above, and the availability (h) at the same pre-pulse potential, using the formula from Kuo and Bean (Figure 1E). […] (Arithmetic means and SEM values are given in Results S7.)

[2] = human plasma, cited from earlier work
[3] = target: T1, rNav1.2 sodium channels (HEK-293 cells); experiment: 5 Hz train protocol, QPatch automated patch-clamp; type: cell-based; conditions: for UD (use-dependence of the inhibition) / potency estimated from few doses / inhibition at 100 µM: 5 Hz train; for τoff: 500 s assigned where irreversible; for Rev (reversibility): Rev = A5/A1 after washout; for potency estimated from few doses / inhibition at 100 µM: HEK293; for potency estimated from few doses: −90 mV, read-out: IC50; for inhibition at 100 µM: −90 mV holding potential, read-out: Inh (inhibited fraction);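 as to UD (use-dependence of the inhibition): UD = (A3/A4)/(A1/A2) as ratios of peak amplitudes from Figure 1A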
Excerpt: The dynamics of the onset and offset of inhibition was monitored using 5 Hz trains of five depolarizing pulses from a holding potential of −90 mV to −10 mV. The trains were repeated every 20 s. Drugs were applied after 10 control trains and 10 trains were delivered in the presence of the drug. The drug was then washed out, and the 10 trains were repeated.
We measured inhibition (Inh; from which we calculated IC50 values as described in Materials and Methods), reversibility of inhibition (Rev) and use-dependence (UD), as well as time constant of onset (τon) and offset (τoff). The calculation of IC50, quantification of Rev and UD, and the determination of time constants are illustrated in Figure 1A. Because τon should be concentration-dependent if we assume a single binding reaction, we excluded it from the analyses. […] Comments on the interpretation of these properties (Rev, […] and UD) are in Results S1.
as §1, §2, §3, §4
From this protocol we extracted five parameters, as illustrated in Figure 1A. We calculated inhibition of a single “cc” concentration: Inh = (amplitudectr – amplitudedrug)/amplitudectr.

[4] = target: sodium channels; conditions: averaged literature data, cited from earlier work; for Ki: read-out: Ki−Lit; for Kd: read-out: Kr−Lit
[5] = calculated from Inh at single concentration 100 μM

- ΔV1/2 (shift of availability curve) ([1]; 30 μM): −7.28 mV
- inhibition at 30 µM ([1]; HEK293, 30 µM, read-out: Inh (inhibited fraction) at holding potential −150 mV): 13%
- Ki ([1]; arithmetic mean, 30 µM, read-out: Ki-Kapp arith): 6.52 µM
- Ki ([1]; arithmetic mean, 30 µM, read-out: Ki-ΔV1/2 arith): 7.69 µM
- Kd ([1]; arithmetic mean, 30 µM, read-out: Kr arith): 225 µM
- Kd ([1]; geometric mean, from Inh at −150 mV, 30 µM, read-out: Kr (resting state affinity)): 206 µM
- Ki ([1]; geometric mean, from apparent affinity, 30 µM, read-out: Ki−Kapp (inactivated state affinity)): 6.1 µM and 6.13 µM
- Ki ([1]; geometric mean, from shift of availability curve, 30 µM, read-out: Ki−ΔV1/2 (inactivated state affinity)): 7.1 µM
- τon ([3]; 30 μM): 14.38 s
- UD (use-dependence of the inhibition) ([3]; 30 μM): 1.09
- τoff ([3]; 30 μM): 22.28 s
- Rev (reversibility) ([3]; 30 μM): 0.37
- potency estimated from few doses ([3]; calculated from Inh at single concentration 30 μM): 23.6 µM
Structure (SMILES): Cc1nc2sccn2c(=O)c1CCN1CCC(=C(c2ccc(F)cc2)c2ccc(F)cc2)CC1 [RIT, Ritanserin]
- plasma conc. ([2]; as printed in each cell): 0.14 [54] µg/ml
- plasma conc. ([2]; as printed in the µg/ml cell): 0.299 µM

Structure (SMILES): CNCCC(Oc1ccccc1OC)c1ccccc1 (centres unmarked) [NIS, Nisoxetine]
- ΔV1/2 (shift of availability curve) ([1]; 100 μM): −6.68 mV
- inhibition at 100 µM ([1]; HEK293, read-out: Inh (inhibited fraction) at holding potential −150 mV): 34%
- Ki ([1]; Ki-Kapp arith, arithmetic mean, 100 µM): 7.63 µM
- Ki ([1]; Ki-ΔV1/2 arith, arithmetic mean, 100 µM): 19.5 µM
- Ki ([1]; Ki−Kapp (inactivated state affinity), geometric mean, from apparent affinity, 100 µM): 7.1 µM
- Ki ([1]; Ki−ΔV1/2 (inactivated state affinity), geometric mean, from shift of availability curve, 100 µM): 19.1 µM
- Kd ([1]; Kr (resting state affinity), geometric mean, from Inh at −150 mV, 100 µM): 194 µM
- Kd ([1]; Kr arith, arithmetic mean, 100 µM): 196 µM
- plasma conc. ([2]; as printed in each cell): 0.05 [46] µg/ml
- plasma conc. ([2]; as printed in the µg/ml cell): 0.159 µM
- τon ([3]; 100 μM): 20.71 s
- UD (use-dependence of the inhibition) ([3]; 100 μM): 1.33
- τoff ([3]; 100 μM): 23.41 s
- Rev (reversibility) ([3]; 100 μM): 0.66
- inhibition at 100 µM ([3]; 100 μM): 57%
- potency estimated from few doses [3, 5]: 75.7 µM

- inhibition at 100 µM ([1]; HEK293, 100 µM, read-out: Inh (inhibited fraction) at holding potential −150 mV): 33%
- Ki ([1]; arithmetic mean, 100 µM, read-out: Ki-Kapp arith): 18.6 µM
- Ki ([1]; arithmetic mean, 100 µM, read-out: Ki-ΔV1/2 arith): 12.8 µM
- Kd ([1]; arithmetic mean, 100 µM, read-out: Kr arith): 201 µM
- Kd ([1]; geometric mean, from Inh at −150 mV, 100 µM, read-out: Kr (resting state affinity)): 201 µM
- Ki ([1]; geometric mean, from apparent affinity, 100 µM, read-out: Ki−Kapp (inactivated state affinity)): 17.6 µM
- Ki ([1]; geometric mean, from shift of availability curve, 100 µM, read-out: Ki−ΔV1/2 (inactivated state affinity)): 12.2 µM
- τon ([3]; 100 μM): 5.74 s
- UD (use-dependence of the inhibition) ([3]; 100 μM): 1.24
- τoff ([3]; 100 μM): 6.78 s
- Rev (reversibility) ([3]; 100 μM): 0.81
- inhibition at 100 µM ([3]; 100 μM): 51%
- potency estimated from few doses [3, 5]: 95.9 µM
Structure (SMILES): Nc1c(Br)cc(Br)cc1CN[C@H]1CC[C@H](O)CC1 [AMB, Ambroxol]
- Ki [4]: 8.17 µM
- Kd [4]: 110 µM

Structure (SMILES): CN(C)CCCN1c2ccccc2CCc2ccccc21 [IMI, Imipramine]
- plasma conc. ([2]; as printed in each cell): 0.2 [44] µg/ml
- plasma conc. ([2]; as printed in the µg/ml cell): 0.631 µM
- Ki [4]: 0.89 µM
- Kd [4]: 26.5 µM
